The source made the active and inactive calls. The rule behind the calls is not given here.
Each compound was assayed against DNA repair protein RAD51 homolog 1 (Homo sapiens) (UniProt Q06609) (assay: concentration-dependent blocking of RAD51 activity – biochemical, homologous recombination, fluorescence, second set, dose response (AID 1437)). Conditions: RAD51 homologous recombination biochemical assay.
Sequence of DNA repair protein RAD51 homolog 1 (Homo sapiens) (Q06609 whole entry, looked up): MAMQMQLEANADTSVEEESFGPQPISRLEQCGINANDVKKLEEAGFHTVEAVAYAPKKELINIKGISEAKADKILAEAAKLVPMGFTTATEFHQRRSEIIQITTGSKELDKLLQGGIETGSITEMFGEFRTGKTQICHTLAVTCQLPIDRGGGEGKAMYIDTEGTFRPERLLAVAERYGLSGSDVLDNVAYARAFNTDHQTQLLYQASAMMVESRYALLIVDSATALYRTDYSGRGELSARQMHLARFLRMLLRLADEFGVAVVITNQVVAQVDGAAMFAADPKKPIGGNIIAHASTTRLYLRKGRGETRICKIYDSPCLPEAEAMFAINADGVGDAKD
Cc1cc(C)cc(N2C(=O)CC(Sc3nnnn3-c3ccccc3)C2=O)c1 (stereo not drawn) was tested, and the IC50 was > 53 µM (inactive).
COC(=O)c1ccc(=O)c2nc3/c(=C/O)c(O)cc(=O)c3[nH]c12 showed an IC50 of 24.8 µM.
With Cc1ccc(C2/C(=C(\O)c3ccc4c(c3)OCCO4)C(=O)C(=O)N2CCCN(C)C)o1 (stereo not drawn) the IC50 was > 53 µM (inactive).

— PubChem BioAssay AID1437 (PCMD, 2008)
